Source: patent US12319652B2, “Salts and solid forms of (R)-1-(5-methoxy-1H-indol-1-yl)-N,N-dimethylpropan-2-amine” (priority 2021, dated 2025)
Like-named read-outs stand apart in the source and are kept apart here.

Columns and labels:
[1] = Solubility determinations in SIF buffers (FaSSIF, FeSSIF, FaSSGF); format: physicochemical
Procedure: At this stage ca. 1 g of each front-runner salt form was prepared. Salt forms that offered significant solubility and stability advantages over the non-ionized API were prioritized. […] Scale Up
The solubility of the salts below was determined in FaSSIF, FeSSIF and FaSSGF by reference to the calibration curve of amorphous compound 1.
Separate portions of compound 1 were weighed out into aluminum boats and were charged to the relevant volumetric flasks. Solutions were made to volume with 1 to 1 (v/v) acetonitrile/purified water to give calibrants of known API concentrations and analyzed by HPLC, suitable to determine the concentration of compound 1 free base in the SIF buffer solubility study.
Each sample (150 mg) was suspended in the relevant SIF buffer (5.0 ml), to give a concentration of 30 mg/ml and maintain at 37° C. for 24 h. The pH was adjusted using 1 M HCl or 1 M NaOH, to ensure that the suspension remains in range.
Sample (1 ml) of the well-stirred representative suspensions was obtained at 1 h, 3 h, 6 h and 24 h and the pH was recorded. The pH of the bulk suspension was re-adjusted when necessary. The obtained sample from each vial was centrifuged, and the supernatant was analysed by HPLC (note, the analyte was diluted, when outside of the calibration range); XRPD analysis was performed on the wet sample pellet for evidence of form change, as well as on the oven-dried pellet (undervacuum at 40° C.).

[2] = format: physicochemical
Procedure: Equilibrium Humidity Evaluation (40° C./75% RH for 10 Days)
100 mg portions of compound 1 salts (for inputs see table below) were placed in the relevant open vials. The powders were finely divided and distributed evenly over the base of the vial, such that equal material coverage across the panel was observed. These samples were then maintained 40°C. under 75% RH. The samples were sub-sampled at intervals of 5 and 10 days and analysed by ^1H NMR, HPLC, XRPD, DSC, TGA and PLM, for evidence of phase change or chemical degradation (FIG. 269-297).

[3] = FaSSGF (ph 1.6), t = 1 h@37° C.
[4] = FaSSGF (ph 1.6), t = 3 h@37° C.
[5] = FaSSGF (ph 1.6), t = 6 h@37° C.
[6] = FaSSGF (ph 1.6), t = 24 h @37° C.
[7] = FaSSIF (ph 6.5), t = 1 h@37° C.
[8] = FaSSIF (ph 6.5), t = 3 h@37° C.
[9] = FaSSIF (ph 6.5), t = 6 h@37° C.
[10] = FaSSIF (ph 6.5), t = 24 h @37° C.
[11] = FeSSIF (ph 5.0), t = 1 h@37° C.
[12] = FeSSIF (ph 5.0), t = 3 h@37° C.
[13] = FeSSIF (ph 5.0), t = 6 h@37° C.
[14] = FeSSIF (ph 5.0), t = 24 h @37° C.

COc1ccc2c(ccn2C[C@@H](C)N(C)C)c1.O=C(O)/C=C/C(=O)O [Compound 1 · Fumarate]
>30 mg/mL: Solubility [1, 3] | Solubility [1, 4] | Solubility [1, 5] | Solubility [1, 6] | Solubility [1, 7] | Solubility [1, 8] | Solubility [1, 9] | Solubility [1, 10] | Solubility [1, 11] | Solubility [1, 12] | Solubility [1, 13] | Solubility [1, 14]

COc1ccc2c(ccn2C[C@@H](C)N(C)C)c1.Cl [HCl salt]
0.04: HPLC peak RRT 1.35 ([2]; salt before storage (t = 0)) | HPLC peak RRT 1.35 ([2]; t = 5 d at 75% RH at 40° C.)
0.02: HPLC peak RRT 0.98 ([2]; salt before storage (t = 0)) | HPLC peak RRT 0.98 ([2]; t = 5 d at 75% RH at 40° C.) | HPLC peak RRT 1.20 ([2]; t = 5 d at 75% RH at 40° C.) | HPLC peak RRT 1.26 ([2]; t = 5 d at 75% RH at 40° C.) | HPLC peak RRT 1.28 ([2]; t = 5 d at 75% RH at 40° C.) | HPLC peak RRT 1.35 ([2]; t = 10 d at 75% RH at 40° C.)
0.42: HPLC peak RRT 1.22 ([2]; t = 5 d at 75% RH at 40° C.)
0.31: HPLC peak RRT 1.22 ([2]; t = 10 d at 75% RH at 40° C.)
99.60: HPLC peak RRT 1.00 (reference peak) ([2]; salt before storage (t = 0)) | HPLC peak RRT 1.00 (reference peak) ([2]; t = 10 d at 75% RH at 40° C.)
0.11: HPLC peak RRT 1.22 ([2]; salt before storage (t = 0))
0.01: HPLC peak RRT 0.93 ([2]; salt before storage (t = 0)) | HPLC peak RRT 0.99 ([2]; salt before storage (t = 0)) | HPLC peak RRT 1.20 ([2]; salt before storage (t = 0)) | HPLC peak RRT 1.32 ([2]; salt before storage (t = 0)) | HPLC peak RRT 0.98 ([2]; t = 10 d at 75% RH at 40° C.)
0.05: HPLC peak RRT 0.93 ([2]; t = 5 d at 75% RH at 40° C.) | HPLC peak RRT 0.93 ([2]; t = 10 d at 75% RH at 40° C.)
99.42: HPLC peak RRT 1.00 (reference peak) ([2]; t = 5 d at 75% RH at 40° C.)
0.16: HPLC peak RRT 1.26 ([2]; salt before storage (t = 0))
0.03: HPLC peak RRT 1.30 ([2]; salt before storage (t = 0))

COc1ccc2c(ccn2C[C@@H](C)N(C)C)c1.Cl [Compound 1 · HCl]
>30 mg/mL: Solubility [1, 3] | Solubility [1, 4] | Solubility [1, 5] | Solubility [1, 6] | Solubility [1, 7] | Solubility [1, 8] | Solubility [1, 9] | Solubility [1, 10] | Solubility [1, 11] | Solubility [1, 12] | Solubility [1, 13] | Solubility [1, 14]
